Reference: PubChem BioAssay (NCI)
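Here, GI50 denotes the concentration required for 50% inhibition of growth. TGI marks complete inhibition of growth.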

What was measured:
Assay in all cases: growth of human tumour cells (NCI), 384-well format
[1] = test system: T-47D breast
[2] = test system: NCI-H460 NSCLC
[3] = test system: UO-31 renal
[4] = test system: OVCAR-5 ovarian
[5] = test system: MDA-MB-468 breast
[6] = test system: HCT-15 colon
[7] = test system: HOP-92 NSCLC
[8] = test system: SN12C renal
[9] = test system: OVCAR-4 ovarian
[10] = test system: MALME-3M melanoma
[11] = test system: MOLT-4 leukemia
[12] = test system: MDA-MB-435 melanoma
[13] = test system: DU-145 prostate
[14] = test system: K-562 leukemia
[15] = test system: OVCAR-8 ovarian
[16] = test system: SNB-19 CNS
[17] = test system: COLO 205 colon
[18] = test system: U251 glioblastoma
[19] = test system: A498 renal
[20] = test system: SF-539 CNS
[21] = test system: SK-MEL-28 melanoma
[22] = test system: HCT-116 colon
[23] = test system: TK-10 renal
[24] = test system: NCI-H522 lung
[25] = test system: CCRF-CEM leukemia
[26] = test system: HCC-2998 colon
[27] = test system: EKVX NSCLC
[28] = test system: OVCAR-3 ovarian
[29] = test system: MDA-MB-231 breast
[30] = test system: SK-OV-3 ovarian
[31] = test system: UACC-257 melanoma
[32] = test system: NCI-H322M lung
[33] = test system: ACHN renal
[34] = test system: SF-295 CNS
[35] = test system: SK-MEL-5 melanoma
[36] = test system: LOX IMVI melanoma
[37] = test system: 786-0 renal
[38] = test system: A549 NSCLC

Q: Which GI50 [1] does the source give for `CCOC(=O)c1ccc2[nH]c(Cc3[nH]c4ccc(C(=O)OCC)cc4c3C)c(C)c2c1` here?
A: Its GI50 is 2.88 µM.

Q: And the TGI [1]?
A: The TGI was 9.2 µM.

Q: And the GI50 [2]?
A: Its GI50 is 0.281 µM.

Q: And the TGI [2]?
A: Its TGI is 2.07 µM.

Q: What about the GI50 [3] of the same compound?
A: Its GI50 is 3.36 µM.

Q: And the TGI [3]?
A: The TGI was 18.9 µM.

Q: And the GI50 [4]?
A: Its GI50 is 2.73 µM.

Q: And the TGI [4]?
A: Its TGI is 32.1 µM.

Q: What about the GI50 [5] of the same compound?
A: Its GI50 is 1.08 µM.

Q: What about the TGI [5] of the same compound?
A: The TGI was 7.27 µM.

Q: And the GI50 [6]?
A: The GI50 was 0.0286 µM.

Q: And the TGI [6]?
A: The TGI was 6.55 µM.

Q: And the GI50 [7]?
A: The GI50 was 2.07 µM.

Q: And the TGI [7]?
A: The TGI was 7.98 µM.

Q: And the GI50 [8]?
A: Its GI50 is 3.08 µM.

Q: What about the TGI [8] of the same compound?
A: Its TGI is 12.6 µM.

Q: What about the GI50 [9] of the same compound?
A: Its GI50 is 3.11 µM.

Q: What about the TGI [9] of the same compound?
A: Its TGI is 14.3 µM.

Q: What about the GI50 [10] of the same compound?
A: The GI50 was 1.63 µM.

Q: And the TGI [10]?
A: The TGI was 6.41 µM.

Q: What about the GI50 [11] of the same compound?
A: Its GI50 is 0.0514 µM.

Q: And the TGI [11]?
A: The TGI was 0.274 µM.

Q: What about the GI50 [12] of the same compound?
A: Its GI50 is 4.68 µM.

Q: What about the TGI [12] of the same compound?
A: The TGI was 61.4 µM.

Q: What about the GI50 [13] of the same compound?
A: The GI50 was 3.05 µM.

Q: What about the TGI [13] of the same compound?
A: The TGI was 17 µM.

Q: And the GI50 [14]?
A: Its GI50 is 0.356 µM.

Q: What about the TGI [14] of the same compound?
A: The TGI was 12.3 µM.

Q: What about the GI50 [15] of the same compound?
A: Its GI50 is 1.56 µM.

Q: And the TGI [15]?
A: Its TGI is 11.1 µM.

Q: And the GI50 [16]?
A: The GI50 was 5.4 µM.

Q: What about the TGI [16] of the same compound?
A: Its TGI is 21.3 µM.

Q: And the GI50 [17]?
A: The GI50 was 0.344 µM.

Q: And the TGI [17]?
A: Its TGI is 14.5 µM.

Q: And the GI50 [18]?
A: The GI50 was 1.13 µM.

Q: What about the TGI [18] of the same compound?
A: Its TGI is 6.01 µM.

Q: What about the GI50 [19] of the same compound?
A: Its GI50 is 2.36 µM.

Q: And the TGI [19]?
A: The TGI was 10.6 µM.

Q: And the GI50 [20]?
A: The GI50 was 1.3 µM.

Q: What about the TGI [20] of the same compound?
A: Its TGI is 7.85 µM.

Q: And the GI50 [21]?
A: The GI50 was 3.4 µM.

Q: And the TGI [21]?
A: The TGI was 23.1 µM.

Q: What about the GI50 [22] of the same compound?
A: The GI50 was 0.472 µM.

Q: And the TGI [22]?
A: Its TGI is 2.41 µM.

Q: And the GI50 [23]?
A: The GI50 was 0.498 µM.

Q: What about the TGI [23] of the same compound?
A: Its TGI is 11.4 µM.

Q: And the GI50 [24]?
A: Its GI50 is 1.69 µM.

Q: And the TGI [24]?
A: The TGI was 12.1 µM.

Q: And the GI50 [25]?
A: Its GI50 is 0.763 µM.

Q: And the TGI [25]?
A: The TGI was 11.7 µM.

Q: And the GI50 [26]?
A: The GI50 was 1.56 µM.

Q: And the TGI [26]?
A: The TGI was 16.1 µM.

Q: And the GI50 [27]?
A: Its GI50 is 4.62 µM.

Q: What about the TGI [27] of the same compound?
A: The TGI was 18.2 µM.

Q: What about the GI50 [28] of the same compound?
A: The GI50 was 2.97 µM.

Q: And the TGI [28]?
A: Its TGI is 12.7 µM.

Q: What about the GI50 [29] of the same compound?
A: The GI50 was 0.601 µM.

Q: And the TGI [29]?
A: Its TGI is 12.1 µM.

Q: And the GI50 [30]?
A: The GI50 was 4.64 µM.

Q: What about the TGI [30] of the same compound?
A: Its TGI is 18.6 µM.

Q: What about the GI50 [31] of the same compound?
A: The GI50 was 9.7 µM.

Q: And the TGI [31]?
A: Its TGI is 25.3 µM.

Q: And the GI50 [32]?
A: The GI50 was 4.26 µM.

Q: And the TGI [32]?
A: Its TGI is 19.7 µM.

Q: What about the GI50 [33] of the same compound?
A: The GI50 was 1.8 µM.

Q: What about the TGI [33] of the same compound?
A: The TGI was 8.24 µM.

Q: What about the GI50 [34] of the same compound?
A: Its GI50 is 0.464 µM.

Q: What about the TGI [34] of the same compound?
A: Its TGI is 4.59 µM.

Q: And the GI50 [35]?
A: Its GI50 is 1.23 µM.

Q: And the TGI [35]?
A: Its TGI is 2.8 µM.

Q: What about the GI50 [36] of the same compound?
A: The GI50 was 0.481 µM.

Q: What about the TGI [36] of the same compound?
A: Its TGI is 1.91 µM.

Q: And the GI50 [37]?
A: The GI50 was 1.4 µM.

Q: And the TGI [37]?
A: Its TGI is 11.7 µM.

Q: And the GI50 [38]?
A: Its GI50 is 1.92 µM.

Q: What about the TGI [38] of the same compound?
A: The TGI was 14.6 µM.
